# Data as given in patent publication US20240391954A1, “MC4R AGONIST PEPTIDES” (The Regents of the University of Michigan, priority 2021, published 2024).
# Positions of bridges follow the written chain, without caps; N, C: chain ends. Non-standard residues stand in square brackets, D forms with d. Residues, ends and D or L forms follow the SMILES beside them. NMeR = CN[C@@H](CCCNC(=N)N)C(=O)O; hCit = NC(=O)NCCCC[C@H](N)C(=O)O; 2Pal = N[C@@H](Cc1ccccn1)C(=O)O; Cit = NC(=O)NCCC[C@H](N)C(=O)O; Nle = CCCC[C@H](N)C(=O)O; Orn = NCCC[C@H](N)C(=O)O; Aib = CC(C)(N)C(=O)O
# How the values were obtained:
# Format in all cases: cell-based
# human MC4R = target: T1, human MC4R (Homo sapiens, UniProt P32245); assay: split-luciferase cAMP sensor assay, agonist mode (measurement window 1), hMC4R; conditions: agonist mode; for Emax: read-out: MC4R cAMP % max activation; for EC50: HEK-293 cells stably expressing hMC4R, read-out: MC4R cAMP EC50
# T1 construct: host or cells: HEK-293 cells stably expressing the GScAMP22F split-luciferase cAMP sensor and hMC4R, G418 selection
# T1 sequence (P32245 whole entry): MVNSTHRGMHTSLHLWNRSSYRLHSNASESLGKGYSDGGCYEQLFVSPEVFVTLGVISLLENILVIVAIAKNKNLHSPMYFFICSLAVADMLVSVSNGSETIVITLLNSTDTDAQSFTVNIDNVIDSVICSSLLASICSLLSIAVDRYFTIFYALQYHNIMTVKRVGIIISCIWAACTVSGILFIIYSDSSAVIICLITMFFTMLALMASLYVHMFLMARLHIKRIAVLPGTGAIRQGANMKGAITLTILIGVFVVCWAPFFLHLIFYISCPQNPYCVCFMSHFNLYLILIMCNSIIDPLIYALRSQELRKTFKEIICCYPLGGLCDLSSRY
# Procedure, shortened: (§1)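 EC50 values come from a four-parameter variable-slope fit of luminescence in measurement window 1, capturing direct peptide effects on receptor-expressing cells with a cAMP22f luciferase sensor. Cells were preloaded with 4% D-luciferin, serum-free medium; 20 μM forskolin normalized for cell number and transducer efficiency.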
# human MC3R = target: T2, human MC3R (Homo sapiens, UniProt P41968); assay: split-luciferase cAMP sensor assay, agonist mode (measurement window 1), hMC3R; conditions: for Emax: read-out: MC3R cAMP % max activation; for MC4R selectivity vs MC3R: MC4R versus MC3R; for EC50: HEK-293 cells stably expressing hMC3R, read-out: MC3R cAMP EC50
# T2 construct: expressed in transfected cells; host or cells: HEK-293 cells stably expressing the GScAMP22F split-luciferase cAMP sensor (parent reporter line from Promega); MC3R clone generated in-house, G418 selection
# T2 sequence (P41968 whole entry): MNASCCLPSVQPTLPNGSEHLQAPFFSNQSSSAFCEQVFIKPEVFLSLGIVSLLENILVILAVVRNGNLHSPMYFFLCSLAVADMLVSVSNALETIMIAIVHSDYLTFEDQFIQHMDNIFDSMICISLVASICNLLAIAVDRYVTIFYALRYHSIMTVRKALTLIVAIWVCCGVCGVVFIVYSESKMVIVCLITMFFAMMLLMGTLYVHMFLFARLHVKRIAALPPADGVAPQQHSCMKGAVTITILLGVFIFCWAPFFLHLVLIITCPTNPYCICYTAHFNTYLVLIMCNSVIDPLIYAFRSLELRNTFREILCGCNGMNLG
# Procedure, shortened: as §1
# human MC1R = target: T3, human MC1R (Homo sapiens, UniProt Q01726); assay: split-luciferase cAMP sensor assay, agonist mode, hMC1R; conditions: MC4R versus MC1R
# T3 construct: expressed in transfected cells; host or cells: HEK-293 cells stably expressing hMC1R and the GScAMP22F cAMP sensor
# T3 sequence (Q01726 whole entry): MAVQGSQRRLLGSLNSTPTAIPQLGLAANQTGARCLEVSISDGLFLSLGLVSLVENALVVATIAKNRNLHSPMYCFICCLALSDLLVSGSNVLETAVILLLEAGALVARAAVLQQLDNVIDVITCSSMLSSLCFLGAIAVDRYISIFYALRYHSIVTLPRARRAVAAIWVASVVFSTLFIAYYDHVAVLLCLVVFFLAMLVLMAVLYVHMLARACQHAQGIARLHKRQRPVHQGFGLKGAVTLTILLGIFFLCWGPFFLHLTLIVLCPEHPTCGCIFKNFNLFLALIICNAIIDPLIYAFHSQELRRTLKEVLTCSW
# Procedure, shortened: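 HEK-293 cells stably expressing hMC1R and the GScAMP22F split-luciferase cAMP sensor, preloaded 120 min at 37° C with D-luciferin in serum-free medium. Peptide responses were taken as peak luminescence over 2-13 min minus 2-min baseline, normalized to the α-MSH ECmax. EC50 was obtained from a four-parameter variable-slope fit.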
# [1] = % maximal activation, agonist mode
Structure (SMILES),Emax (human MC4R; % maximal activation) [%],Emax (human MC3R; [1]) [%],MC4R selectivity vs MC3R (human MC3R),MC4R selectivity vs MC1R (human MC1R),MC4R cAMP % max activation (human MC4R; % maximal activation),EC50 (human MC4R) [nM],MC3R cAMP % max activation (human MC3R; [1]),EC50 (human MC3R; agonist mode) [nM]
"CC(=O)N[C@@H](CCCNC(=N)N)C(=O)N[C@H]1CSSC[C@@H](C(N)=O)NC(=O)[C@H](Cc2ccccc2)NC(=O)[C@H](CCCNC(=N)N)NC(=O)[C@@H](Cc2ccccc2)NC(=O)[C@H](CCCN)NC(=O)C(C)(C)NC1=O [CTX-1602, Arg-cyclo(Cys-Aib-Orn-D-Phe-Arg-Phe-Cys)] (Ac-RC[Aib][Orn][dF]RFC-NH2; disulfide 2-8)",97,80,3.44,3.65,,,,
"CC(=O)N[C@@H](CCCNC(=N)N)C(=O)N[C@H]1CSSC[C@@H](C(N)=O)NC(=O)[C@@H](Cc2ccccc2)NC(=O)[C@H](CCCNC(=N)N)NC(=O)[C@@H](Cc2ccccc2)NC(=O)[C@H](CCCNC(=N)N)NC(=O)[C@@H](C)NC1=O [CTX-1257, Arg-cyclo(Cys-D-Ala-Arg-D-Phe-Arg-D-Phe-Cys)] (Ac-RC[dA]R[dF]R[dF]C-NH2; disulfide 2-8 (inferred))",,,0.06,0.02,(94%),692,(88%),
"CC(=O)N[C@H]1CSSC[C@@H](C(N)=O)NC(=O)[C@H](Cc2ccccc2)NC(=O)[C@H](CCCNC(=N)N)NC(=O)[C@@H](Cc2ccccc2)NC(=O)[C@H](CCCNC(N)=O)NC(=O)C(C)(C)NC1=O [CTX-1636, cyclo(Cys-Aib-Cit-D-Phe-Arg-Phe-Cys)] (Ac-C[Aib][Cit][dF]RFC-NH2; disulfide 1-7 (inferred))",102,44,9.44,>12,,,,
"N=C(N)NCCC[C@@H]1NC(=O)CNC(=O)CSC[C@@H](C(N)=O)NC(=O)[C@H](Cc2c[nH]c3ccccc23)NC(=O)[C@H](CCCNC(=N)N)NC(=O)[C@@H](Cc2ccccc2)NC1=O [CTX-1645, Thioether-cyclo(Gly-Arg-D-Phe-Arg-Trp-Cys)] ({CH2CO}-GR[dF]RWC-NH2; thioether N-6)",110,97,42,9.04,,1.6,,68
"C[C@H]1NC(=O)CSC[C@@H](C(N)=O)NC(=O)[C@H](Cc2ccccc2)NC(=O)[C@H](CCCNC(=N)N)NC(=O)[C@@H](Cc2ccccc2)NC(=O)[C@H](CCCNC(=N)N)NC1=O [CTX-1657, Thioether-cyclo(D-Ala-Arg-D-Phe-Arg-Phe-Cys)] ({CH2CO}-[dA]R[dF]RFC-NH2; thioether N-6)",78,30,3.56,1.42,,,,
"CC(=O)N[C@@H](CCCNC(=N)N)C(=O)N[C@H]1CSSC[C@@H](C(N)=O)NC(=O)[C@@H](Cc2c[nH]c3ccccc23)NC(=O)[C@H](CCCNC(=N)N)NC(=O)[C@@H](Cc2ccccc2)NC(=O)[C@H](CCCNC(N)=O)NC(=O)[C@@H](C)NC1=O [CTX-1286, Arg-cyclo(Cys-D-Ala-Cit-D-Phe-Arg-D-Trp-Cys)] (Ac-RC[dA][Cit][dF]R[dW]C-NH2; disulfide 2-8)",91,24,2.16,3.4,,,,
"CCCC[C@H](NC(=O)[C@H](CCCNC(=N)N)NC(C)=O)C(=O)N[C@H]1CSSC[C@@H](C(N)=O)NC(=O)[C@H](Cc2ccccc2)NC(=O)[C@H](CCCNC(=N)N)NC(=O)[C@@H](Cc2ccccc2)NC(=O)[C@H](CCCNC(N)=O)NC1=O [CTX-1626, Arg-Nle-cyclo(Cys-Cit-D-Phe-Arg-Phe-Cys)] (Ac-R[Nle]C[Cit][dF]RFC-NH2; disulfide 3-8 (inferred))",83,51,1.6,3.05,,,,
"CCCC[C@H](NC(=O)[C@H](CCCNC(=N)N)NC(C)=O)C(=O)N[C@H]1CSSC[C@@H](C(N)=O)NC(=O)[C@H](Cc2c[nH]c3ccccc23)NC(=O)[C@H](CCCNC(=N)N)NC(=O)[C@@H](Cc2ccccc2)NC(=O)[C@H](Cc2ccccn2)NC1=O [CTX-1619, Arg-Nle-cyclo(Cys-Pal(2′)-D-Phe-Arg-Trp-Cys)] (Ac-R[Nle]C[2Pal][dF]RWC-NH2; disulfide 3-8 (inferred))",99,84,13,86,,2.6,,
"CC1(C)NC(=O)CSC[C@@H](C(N)=O)NC(=O)[C@H](Cc2c[nH]c3ccccc23)NC(=O)[C@H](CCCNC(=N)N)NC(=O)[C@@H](Cc2ccccc2)NC(=O)[C@H](CCCNC(N)=O)NC1=O [CTX-1649, Thioether-cyclo(Aib-Cit-D-Phe-Arg-Trp-Cys)] ({CH2CO}-[Aib][Cit][dF]RWC-NH2; thioether N-6)",97,79,72,1652,,,,
"CC(=O)N[C@H]1CSSC[C@@H](C(N)=O)NC(=O)[C@H](Cc2ccccc2)NC(=O)[C@H](CCCNC(=N)N)NC(=O)[C@@H](Cc2ccccc2)NC(=O)[C@H](CCCNC(N)=O)NC(=O)CNC1=O [CTX-1639, cyclo(Cys-Gly-Cit-D-Phe-Arg-Phe-Cys)] (Ac-CG[Cit][dF]RFC-NH2; disulfide 1-7 (inferred))",88,44,2.82,8.32,,,,
"CC(=O)N[C@@H](CCCNC(=N)N)C(=O)N[C@H]1CSSC[C@@H](C(N)=O)NC(=O)[C@H](Cc2ccccc2)NC(=O)[C@H](CCCNC(=N)N)NC(=O)[C@@H](Cc2ccccc2)NC(=O)[C@H](CCCCNC(N)=O)NC(=O)C(C)(C)NC1=O [CTX-1603, Arg-cyclo(Cys-Aib-homo-Cit-D-Phe-Arg-Phe-Cys)] (Ac-RC[Aib][hCit][dF]RFC-NH2; disulfide 2-8 (inferred))",91,,>18,2.46,,,,> 10000
"CC(=O)N[C@@H](CCCNC(=N)N)C(=O)N[C@H]1CSSC[C@@H](C(N)=O)NC(=O)[C@@H](Cc2c[nH]c3ccccc23)NC(=O)[C@H](CCCNC(=N)N)N(C)C(=O)[C@@H](Cc2ccccc2)NC(=O)[C@H](CCCNC(=N)N)NC(=O)[C@@H](C)NC1=O [CTX-1284, Arg-cyclo(Cys-D-Ala-Arg-D-Phe-N-Me-Arg-D-Trp-Cys)] (Ac-RC[dA]R[dF][NMeR][dW]C-NH2; disulfide 2-8)",91,45,8.11,0.15,,,,1040
"N=C(N)NCCC[C@@H]1NC(=O)CNC(=O)CSC[C@@H](C(N)=O)NC(=O)[C@H](Cc2ccccc2)NC(=O)[C@H](CCCNC(=N)N)NC(=O)[C@@H](Cc2ccccc2)NC1=O [CTX-1654, Thioether-cyclo(Gly-Arg-D-Phe-Arg-Phe-Cys)] ({CH2CO}-GR[dF]RFC-NH2; thioether N-6)",81,43,5.41,0.62,,,,
"CC(=O)N[C@@H](CCCNC(=N)N)C(=O)N[C@H]1CSSC[C@@H](C(N)=O)NC(=O)[C@H](Cc2c[nH]c3ccccc23)NC(=O)[C@H](CCCNC(=N)N)NC(=O)[C@@H](Cc2ccccc2)NC(=O)[C@H](CCCNC(=N)N)NC(=O)C(C)(C)NC1=O [CTX-1292, Arg-cyclo(Cys-Aib-Arg-D-Phe-Arg-Trp-Cys)] (Ac-RC[Aib]R[dF]RWC-NH2; disulfide 2-8 (inferred))",90,76,21,2.46,,,,
"COc1ccc(C[C@H]2NC(=O)[C@H](CCCNC(N)=O)NC(=O)C(C)(C)NC(=O)[C@@H](NC(=O)[C@H](CCCNC(=N)N)NC(C)=O)CSSC[C@@H](C(N)=O)NC(=O)[C@H](Cc3ccccc3)NC(=O)[C@H](CCCNC(=N)N)NC2=O)cc1 [CTX-1299, Arg-cyclo(Cys-Aib-Cit-D-Tyr(4-OMe)-Arg-Phe-Cys)] (Ac-RC[Aib][Cit][dY](Me)RFC-NH2; disulfide 2-8)",78,,>154,3.66,,,,> 10000
"CC1(C)NC(=O)CSC[C@@H](C(N)=O)NC(=O)[C@H](Cc2ccccc2)NC(=O)[C@H](CCCNC(=N)N)NC(=O)[C@@H](Cc2ccccc2)NC(=O)[C@H](Cc2c[nH]cn2)NC1=O [CTX-1650, Thioether-cyclo(Aib-His-D-Phe-Arg-Phe-Cys)] ({CH2CO}-[Aib]H[dF]RFC-NH2; thioether N-6)",113,125,53,0.95,,288,,
"CC1(C)NC(=O)CSC[C@@H](C(N)=O)NC(=O)[C@H](Cc2c[nH]c3ccccc23)NC(=O)[C@H](CCCNC(=N)N)NC(=O)[C@@H](Cc2ccccc2)NC(=O)[C@H](Cc2c[nH]cn2)NC1=O [CTX-1647, Thioether-cyclo(Aib-His-D-Phe-Arg-Trp-Cys)]",109,102,30,3.66,,,,
